Reference: patent publication US10640534B2 (Agios Pharmaceuticals, Inc., priority 2012, dated 2020)

Test system: U87MG cells
Experiment: Cellular assay, inhibition of 2-HG production in U87MG cells
Assay type: cell-based
Settings: Homo sapiens, U-87 MG, 48 h
Experimental: Cells (HT1080 or U87MG) are grown in T125 flasks in DMEM containing 10% FBS, 1× penicillin/streptomycin and 500 ug/mL G418 (present in U87MG cells only). They are harvested by trypsin and seeded into 96 well white bottom plates at a density of 5000 cell/well in 100 ul/well in DMEM with 10% FBS. […] Cells are incubated overnight at 37° C. in 5% CO2. The next day test compounds are made up at 2× the final concentration and 100 ul are added to each cell well. The final concentration of DMSO is 0.2% and the DMSO control wells are plated in row G. The plates are then placed in the incubator for 48 hours. […] The cell plate is placed back in the incubator for another 24 hours. At 72 hours post compound addition, 10 mL/plate of Promega Cell Titer Glo reagent is thawed and mixed. The cell plate is removed from the incubator and allowed to equilibrate to room temperature. Then 100 ul of Promega Cell Titer Glo reagent is added to each well of media. The cell plate is then placed on an orbital shaker for 10 minutes and then allowed to sit at room temperature for 20 minutes. The plate is then read for luminescence with an integration time of 500 ms.

SMILES	IC50
CS(=O)(=O)c1cccc(N(C(=O)[C@@H]2CCC(=O)N2c2nccc(C#N)n2)[C@H](C(=O)NC2CCC(F)(F)CC2)c2ccccc2Cl)c1 [Compound 103, (S)—N—((S)-1-(2C)-2-((4,4-difluorocyclohexyl)amino)-2-oxoethyl)-1-(4-cyanopyrimidin-2-yl)-N-(3-(methylsulfonyl)phenyl)-5-oxopyrrolidine-2-carboxamide]	100 to 500 nM
N#Cc1ccnc(N2C(=O)CC[C@H]2C(=O)N(c2cccc3[nH]cnc23)C(C(=O)NC2CCC(F)(F)CC2)c2ccccc2Cl)c1 (stereo partly drawn) [Compound 141, (2S)—N-(1H-benzo[d]imidazol-7-yl)-N-(1-(2-chlorophenyl)-2-((4,4-difluorocyclohexyl)amino)-2-oxoethyl)-1-(4-cyanopyridin-2-yl)-5-oxopyrrolidine-2-carboxamide]	< 100 nM
N#Cc1ccnc(N2C(=O)CC[C@H]2C(=O)N(c2cccc(CCO)c2)[C@H](C(=O)NC2CC(F)(F)C2)c2ccccc2Cl)c1 [Compound 160, (S)—N—((S)-1-(2-Chlorophenyl)-2-((3,3-difluorocyclobutyl)amino)-2-oxoethyl)-1-(4-cyanopyridin-2-yl)-N-(3-(2-hydroxyethyl)phenyl)-5-oxopyrrolidine-2-carboxamide]	< 100 nM
N#Cc1ccnc(N2C(=O)[C@H](O)C[C@H]2C(=O)N(c2cc(F)cc(F)c2)[C@H](C(=O)NC2CC(F)(F)C2)c2ccccc2Cl)c1 [Compound 115, (2S,4R)—N—((S)-1-(2-Chlorophenyl)-2-((3,3-difluorocyclobutyl)amino)-2-oxoethyl)-1-(4-cyanopyridin-2-yl)-N-(3,5-difluorophenyl)-4-hydroxy-5-oxopyrrolidine-2-carboxamide]	< 100 nM
CN(C)S(=O)(=O)c1cccc(N(C(=O)[C@@H]2CCC(=O)N2c2cc(C#N)ccn2)[C@H](C(=O)NC2CC(F)(F)C2)c2ccccc2Cl)c1 [Compound 156, (S)—N—((S)-1-(2-Chlorophenyl)-2-(3,3-difluorocyclobutylamino)-2-oxoethyl)-1-(4-cyanopyridin-2-yl)-N-(3-(N,N-dimethylsulfamoyl)phenyl)-5-oxopyrrolidine-2-carboxamide]	< 100 nM
N#Cc1ccnc(N2C(=O)CC[C@H]2C(=O)N(c2cccc(F)c2)[C@H](C(=O)NC2CCC(F)(F)CC2)c2ccccc2Cl)c1F [Compound 83, (S)—N—((S)-1-(2-Chlorophenyl)-2-((4,4-difluorocyclohexyl)amino)-2-oxoethyl)-1-(4-cyano-3-fluoropyridin-2-yl)-N-(3-fluorophenyl)-5-oxopyrrolidine-2-carboxamide]	< 100 nM
N#Cc1ccnc(N2C(=O)[C@@H](O)C[C@H]2C(=O)N(c2cc(F)cc(F)c2)[C@H](C(=O)NC2CC(F)(F)C2)c2ccccc2Cl)c1 [Compound 171, (2S,4S)—N—((S)-1-(2-Chlorophenyl)-2-((3,3-difluorocyclobutyl)amino)-2-oxoethyl)-1-(4-cyano-pyridin-2-yl)-N-(3,5-difluorophenyl)-4-hydroxy-5-oxopyrrolidine-2-carboxamide]	< 100 nM
N#Cc1ccnc(N2C(=O)CC[C@H]2C(=O)N(c2cccc(OC(F)F)c2)[C@H](C(=O)NC2CC(F)(F)C2)c2ccccc2Cl)n1 [Compound 194, (S)—N—((S)-1-(2-Chlorophenyl)-2-((3,3-difluorocyclobutyl)amino)-2-oxoethyl)-1-(4-cyanopyrimidin-2-yl)-N-(3-(difluoromethoxy)phenyl)-5-oxopyrrolidine-2-carboxamide]	< 100 nM
N#Cc1ccnc(N2C(=O)CC[C@H]2C(=O)N(c2cc(F)cc(F)c2)[C@H](C(=O)NC2CC(F)(F)C2)c2ccccc2Cl)n1 [Compound 86, (S)—N—((S)-1-(2-Chlorophenyl)-2-((3,3-difluorocyclobutyl)amino)-2-oxoethyl)-1-(4-cyanopyrimidin-2-yl)-N-(3,5-difluorophenyl)-5-oxopyrrolidine-2-carboxamide]	< 100 nM
CS(=O)(=O)Nc1cccc(N(C(=O)[C@@H]2CCC(=O)N2c2cc(C#N)ccn2)[C@H](C(=O)NC2CC(F)(F)C2)c2ccccc2Cl)c1 [Compound 159, (S)—N—((S)-1-(2-Chlorophenyl)-2-(3,3-difluorocyclobutylamino)-2-oxoethyl)-1-(4-cyanopyridin-2-yl)-N-(3-(methylsulfonamido)phenyl)-5-oxopyrrolidine-2-carboxamide]	< 100 nM
N#Cc1ccnc(N2C(=O)[C@H](O)C[C@H]2C(=O)N(c2cc(F)cc(F)c2)[C@@H](C(=O)NC2CC(F)(F)C2)c2ccccc2Cl)n1 [Compound 116, (2S,4R)—N—((R)-1-(2-Chlorophenyl)-2-((3,3-difluorocyclobutyl)amino)-2-oxoethyl)-1-(4-cyanopyrimidin-2-yl)-N-(3,5-difluorophenyl)-4-hydroxy-5-oxopyrrolidine-2-carboxamide]	100 to 500 nM
O=C(NC1CC(F)(F)C1)[C@H](c1ccccc1Cl)N(C(=O)[C@@H]1CCC(=O)N1c1cc(Cl)ccn1)c1cccc(F)c1 [Compound 33]	100 to 500 nM
O=C(NC1CCC(F)(F)CC1)[C@H](c1ccccc1Cl)N(C(=O)[C@@H]1COC(=O)N1c1ncccn1)c1cccc(F)c1 [Compound 76, (S)—N—((S)-1-(2-Chlorophenyl)-2-((4,4-difluorocyclohexyl)amino)-2-oxoethyl)-N-(3-fluoro-phenyl)-2-oxo-3-(pyrimidin-2-yl)oxazolidine-4-carboxamide]	< 100 nM
[2H]c1c([2H])c([2H])c([C@@H](C(=O)NC2CC(F)(F)C2)N(C(=O)[C@@H]2CCC(=O)N2c2cc(C#N)ccn2)c2cc(F)cc(F)c2)c(Cl)c1[2H] [Compound 163]	< 100 nM
CC(C)(O)c1cc(F)cc(N(C(=O)[C@@H]2COC(=O)N2c2cc(C#N)ccn2)C(C(=O)NC2CC(F)(F)C2)c2ccccc2Cl)c1 (stereo partly drawn) [Compound 145, (4S)—N-(1-(2-Chlorophenyl)-2-(3,3-difluorocyclobutylamino)-2-oxoethyl)-3-(4-cyanopyridin-2-yl)-N-(3-fluoro-5-(2-hydroxypropan-2-yl)phenyl)-2-oxooxazolidine-4-carboxamide]	< 100 nM
N#Cc1ccnc(N2C(=O)CC[C@H]2C(=O)N(c2cccc(F)c2)[C@H](C(=O)NC2CC(F)(F)C2)c2ccccc2Cl)c1 [Compound 37]	< 100 nM
O=C(NC1CC(F)(F)C1)C(c1ccccc1Cl)N(C(=O)[C@@H]1CCC(=O)N1c1ccccn1)c1cccc(F)c1 (some centres unmarked) [Compound 5]	100 to 500 nM
CNS(=O)(=O)c1cccc(N(C(=O)[C@@H]2CCC(=O)N2c2cc(C#N)ccn2)[C@H](C(=O)NC2CC(F)(F)C2)c2ccccc2Cl)c1 [Compound 157]	< 100 nM
N#Cc1ccnc(N2C(=O)CC[C@H]2C(=O)N(c2cncc(F)c2)[C@H](C(=O)NC2CC(F)(F)C2)c2ccccc2F)c1 [Compound 148, (S)-1-(4-Cyanopyridin-2-yl)-N—((S)-2-((3,3-difluorocyclobutyl)amino)-1-(2-fluorophenyl)-2-oxoethyl)-N-(5-fluoropyridin-3-yl)-5-oxopyrrolidine-2-carboxamide]	< 100 nM
N#Cc1ccnc(N2C(=O)CC[C@H]2C(=O)N(c2cccc(F)c2)[C@H](C(=O)NC2CCC(F)(F)CC2)c2ccccc2Cl)c1 [Compound 53]	< 100 nM
N#Cc1ccnc(N2C(=O)CCC[C@H]2C(=O)N(c2cccc(F)c2)[C@H](C(=O)NC2CC(F)(F)C2)c2ccccc2Cl)c1 [Compound 55, (S)—N—((S)-1-(2-Chlorophenyl)-2-(3,3-difluorocyclobutylamino)-2-oxoethyl)-1-(4-cyanopyridin-2-yl)-N-(3-fluorophenyl)-6-oxopiperidine-2-carboxamide]	< 100 nM
CCOC(=O)CN1CC(=O)N(c2cc(C#N)ccn2)[C@H](C(=O)N(c2cc(F)cc(F)c2)[C@H](C(=O)NC2CC(F)(F)C2)c2ccccc2Cl)C1 [Compound 104]	< 100 nM
N#Cc1cc(C#N)cc(N(C(=O)[C@@H]2CCC(=O)N2c2cc(C#N)ccn2)[C@H](C(=O)NC2CC(F)(F)C2)c2ccccc2Cl)c1 [Compound 153, (S)—N—((S)-1-(2-Chlorophenyl)-2-((3,3-difluorocyclobutyl)amino)-2-oxoethyl)-1-(4-cyanopyridin-2-yl)-N-(3,5-dicyanophenyl)-5-oxopyrrolidine-2-carboxamide]	< 100 nM
N#Cc1ccnc(N2C(=O)CC[C@H]2C(=O)N(c2cc(F)cc(F)c2)[C@H](C(=O)NC2CC(F)(F)C2)c2cc(Cl)ccc2Cl)c1 [Compound 201, (S)-1-(4-Cyanopyridin-2-yl)-N—((S)-1-(2,5-dichlorophenyl)-2-((3,3-difluorocyclobutyl)-amino)-2-oxoethyl)-N-(3,5-difluorophenyl)-5-oxopyrrolidine-2-carboxamide]	< 100 nM
N#Cc1ccnc(N2C(=O)[C@H](O)C[C@H]2C(=O)N(c2cc(F)cc(F)c2)[C@@H](C(=O)NC2CCC(F)(F)CC2)c2ccccc2Cl)n1 [Compound 126, (2S,4R)—N—((R)-1-(2-Chlorophenyl)-2-(4,4-difluorocyclohexylamino)-2-oxoethyl)-1-(4-cyanopyrimidin-2-yl)-N-(3,5-difluorophenyl)-4-hydroxy-5-oxopyrrolidine-2-carboxamide]	100 to 500 nM
N#Cc1cc(F)cc(N(C(=O)[C@@H]2CCC(=O)N2c2cc(C#N)ccn2)[C@H](C(=O)NC2CC(F)(F)C2)c2ccccc2Cl)c1 [Compound 177, (S)—N—((S)-1-(2-Chlorophenyl)-2-(3,3-difluorocyclobutylamino)-2-oxoethyl)-N-(3-cyano-5-fluorophenyl)-1-(4-cyanopyridin-2-yl)-5-oxopyrrolidine-2-carboxamide]	< 100 nM
